Laboratory results published in publication PMC8592624, “Rapid and improved oral absorption of N-butylphthalide by sodium cholate-appended liposomes for efficient ischemic stroke therapy” (Drug Delivery, 2021).

Assays:
[1] = Biodistribution in rats after oral administration; assay type: in vivo; details: p.o., 30 mg/kg, during 2 h
Description: Before the start of the experiment, rats were fasted while allowed to drink freely overnight. […] Rats were sacrificed 0.083, 0.25, 0.5, 1 and 2 h post-administration, and subsequently, the vital organs involving heart, liver, spleen, kidney, lung as well as brain were harvested and processed by following procedures. In brief, the harvest tissues were weighed and homogenized in cold saline. The obtained tissue lysates (100 μL) was methanol precipitated and centrifuged (4 °C, 15 min) followed by injection of the supernatant (50 μL) into HPLC. The NBP concentration in each tissue sample was calculated from the respective standard curves. […] Re= AUC0−t, tissue, formulation/AUC0−t, tissue, NBP suspension (Wang et al., [2014]) Ce=Cmax, tissue, formulation/Cmax, tissue, NBP suspension (Wang et al., [2021])

[2] = Pharmacokinetics in rats; assay type: in vivo, Sprague-Dawley rats
Description: Male Sprague-Dawley rats (250 ± 20 g) were obtained from the laboratory animal center of Zhengzhou University (Zhengzhou, China). The animal experiments were conducted in accordance with the Regional Ethics Committee and protocols from the Institutional Animal Care and Use Committee of Zhengzhou University. Rats were fasted overnight with free access of water before the pharmacokinetic studies. To begin with, rats were randomly assigned into three groups. […] 0.5 mL of blood was taken from rats by retro-orbital sinus at 0.083, 0.25, 0.5, 1, 2, 3, 4, 6, 8, and 10 h after administration, respectively. The concentration of NBP in plasma was determined by HPLC after suitable processing. Briefly, 300 µL methanol was mixed with 100 µL of plasma and the resultant suspension was centrifuged (12,000 rpm, 10 min). The supernatant obtained was analyzed by a validated HPLC method (Supplementary Table 2). The pharmacokinetic parameters were obtained using DAS 3.0 software (Mathematical Pharmacology Professional Committee of China) and were presented as mean ± SD. The absolute bioavailability (Fa) and the relative bioavailability (Fr) were calculated by the following equations, respectively: (4) Fa (%)=AUC0−t, oralDosei.v/AUC0−t, i.vDoseoral (5) Fr (%)=AUC0−t, formulation/AUC0−t, NBP suspension
Where AUC0−t represents the area under the pharmacokinetic curve throughout the study.

[3] = system: cerebral ischemia/reperfusion (I/R) model; test: Cerebral ischemia/reperfusion (I/R) model, middle cerebral artery occlusion (MCAO); assay type: in vivo; details: MCAO rats, 30 mg/kg p.o.
Description: Rats (280-320 g) were divided into five groups randomly (n = 10 per group): […] After lateral neck incision, the internal carotid artery, right common carotid artery […] and external carotid artery were exposed. A surgical nylon suture was gently advanced to occlude MCA until slight resistance was felt (18-20 mm from MCA bifurcation). 1.5 hours post MCAO, reperfusion was inducted by taking out the suture and the rats were immediately orally given the predetermined formulations. The sham operated group received the same surgery in the […] of the MCAO and drug treatment. The core body temperature was kept constant (37 ± 0.5 °C) for 24 h post reperfusion. Neurological deficit of rats was then assessed by the blinded Longa's method. […] The cerebral infarct area (White) was analyzed by Image-J and represented as a percentage of the total brain area. Histological alterations of brain samples from the remaining rats were analyzed via hematoxylin and esosin (H&E) staining and then observed under a microscope. The levels of malondialdehyde (MDA), superoxide dismutase (SOD) and glutathione peroxidase (GSH-Px) in brain lysates were determined 24 h after reperfusion according to the protocols of the specific agent kit (Servicebio, Wuhan, China).

[4] = In vitro drug release (dialysis method); assay type: physicochemical
Description: The release curves of the formulations were obtained using a dialysis method (Zhang et al., [2011]). […] The following procedures were performed as above.

[5] = i.v., NBP solution, 30 mg/kg, n = 5

CCCCC1OC(=O)c2ccccc21 (stereo not drawn) [NBP, N-butylphthalide]
organ of main accumulation [1]: mainly in the lung | Fa (absolute bioavailability) ([2]; i.v., 30 mg/kg (reference)): 100% | AUC0-t [2, 5]: 7590 ± 780 ng·h/mL | CLz [2, 5]: 44.2 ± 4.17 mL/min/kg | Cmax [2, 5]: 25510 ± 3460 ng/mL | tmax [2, 5]: 4.98 min | Fa (absolute bioavailability) ([2]; p.o., 30 mg/kg): 21.7% | Fr (relative bioavailability to NBP suspension) ([2]; p.o., 30 mg/kg): 100% | time at which Cmax was observed on plasma curve ([2]; p.o., 30 mg/kg, Figure 3(B)): 2 h | AUC0-t ([2]; p.o., 30 mg/kg, n = 5): 1650 ± 320 ng·h/mL | Cmax ([2]; p.o., 30 mg/kg, n = 5): 360 ± 130 ng/mL | tmax ([2]; p.o., 30 mg/kg, n = 5): 61.2 ± 18.6 min | CLz ([2]; p.o., 30 mg/kg, n = 5, apparent clearance (CL/F)): 201.8 ± 62.7 mL/min/kg | neurological score compared with I/R group ([3]; 24 h): no significant difference | infarct volume ([3]; TTC staining, percentage of total brain area): 27.66 ± 2.59% | cumulative release during 12 h ([4]; SGF pH 1.2 2 h then phosphate buffer pH 6.8, 37 °C): 6.79 ± 0.99% | cumulative drug release within 2 h ([4]; SGF pH 1.2, 37 °C, 100 rpm): about 6% | 24 h cumulative drug release amount ([4]; SGF pH 1.2 then phosphate buffer pH 6.8, 37 °C): 6.79 ± 0.99%
